Source: the supplement of paper PMC10307832

Experiments:
Assay in all cases: relative viability (nuclei count vs DMSO), 5 days (fraction); higher = more cells survive
AZD8055 = compound: COc1ccc(-c2ccc3c(N4CCOC[C@@H]4C)nc(N4CCOC[C@@H]4C)nc3n2)cc1CO [AZD8055]
Procedure, shortened: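 Only plates meeting two conditions passed: control CV below 25% and at least one doubling. Lung cancer cell lines, kept overnight at 37 °C in 1536-well plates, were pinned with five library-drug doses (not always all listed) √10 apart on vehicle-anchored plates and grown 5 days without medium change. A one-step fix, permeabilisation and Hoechst stain preceded 4× imaging and MetaXpress nuclear counting. Viability equals treated-well nuclei divided by vehicle-well nuclei, as the median over plates.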

AZD8055 + Tozasertib = compound: COc1ccc(-c2ccc3c(N4CCOC[C@@H]4C)nc(N4CCOC[C@@H]4C)nc3n2)cc1CO [AZD8055] + Cc1cc(Nc2cc(N3CCN(C)CC3)nc(Sc3ccc(NC(=O)C4CC4)cc3)n2)n[nH]1 [Tozasertib] (partner 0.1 µM)
Procedure, shortened: (§1)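 One day after seeding in 1536-well plates, lung cancer cell lines were dosed by pin tool. Dosing was either single-drug or a fixed anchor-drug dose plus five library-drug doses (not always all listed) in √10 steps. After 5 days, nuclei were stained in one fix-and-stain step and counted on 4× images, and relative viability is the nuclei count of treated wells over that of vehicle wells, given as the median of duplicate plates.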

AZD8055 + Pemetrexed = compound: COc1ccc(-c2ccc3c(N4CCOC[C@@H]4C)nc(N4CCOC[C@@H]4C)nc3n2)cc1CO [AZD8055] + Nc1nc2[nH]cc(CCc3ccc(C(=O)N[C@@H](CCC(=O)O)C(=O)O)cc3)c2c(=O)[nH]1 [Pemetrexed] (partner 0.2 µM)
Procedure, shortened: as §1

AZD8055 + Palbociclib = compound: COc1ccc(-c2ccc3c(N4CCOC[C@@H]4C)nc(N4CCOC[C@@H]4C)nc3n2)cc1CO [AZD8055] + CC(=O)c1c(C)c2cnc(Nc3ccc(N4CCNCC4)cn3)nc2n(C2CCCC2)c1=O [Palbociclib] (partner 0.5 µM)
Procedure, shortened: as §1

AZD8055 + Dasatinib = compound: COc1ccc(-c2ccc3c(N4CCOC[C@@H]4C)nc(N4CCOC[C@@H]4C)nc3n2)cc1CO [AZD8055] + Cc1nc(Nc2ncc(C(=O)Nc3c(C)cccc3Cl)s2)cc(N2CCN(CCO)CC2)n1 [Dasatinib] (partner 0.075 µM)
Procedure, shortened: as §1

AZD8055 + Olaparib = compound: COc1ccc(-c2ccc3c(N4CCOC[C@@H]4C)nc(N4CCOC[C@@H]4C)nc3n2)cc1CO [AZD8055] + O=C(c1cc(Cc2n[nH]c(=O)c3ccccc23)ccc1F)N1CCN(C(=O)C2CC2)CC1 [Olaparib] (partner 8 µM)
Procedure, shortened: as §1

AZD8055 + Luminespib = compound: COc1ccc(-c2ccc3c(N4CCOC[C@@H]4C)nc(N4CCOC[C@@H]4C)nc3n2)cc1CO [AZD8055] + CCNC(=O)c1noc(-c2cc(C(C)C)c(O)cc2O)c1-c1ccc(CN2CCOCC2)cc1 [Luminespib] (partner 0.01 µM)
Procedure, shortened: as §1

AZD8055 + Decitabine = compound: COc1ccc(-c2ccc3c(N4CCOC[C@@H]4C)nc(N4CCOC[C@@H]4C)nc3n2)cc1CO [AZD8055] + Nc1ncn([C@H]2C[C@H](O)[C@@H](CO)O2)c(=O)n1 [Decitabine] (partner 2 µM)
Procedure, shortened: as §1

AZD8055 + OSI-027 = compound: COc1ccc(-c2ccc3c(N4CCOC[C@@H]4C)nc(N4CCOC[C@@H]4C)nc3n2)cc1CO [AZD8055] + COc1cccc2cc(-c3nc([C@H]4CC[C@H](C(=O)O)CC4)n4ncnc(N)c34)[nH]c12 [OSI-027] (partner 0.5 µM)
Procedure, shortened: as §1

AZD8055 + Phenformin = compound: COc1ccc(-c2ccc3c(N4CCOC[C@@H]4C)nc(N4CCOC[C@@H]4C)nc3n2)cc1CO [AZD8055] + N=C(N)NC(=N)NCCc1ccccc1 [Phenformin] (partner 250 µM)
Procedure, shortened: as §1

AZD8055 + AZD7762 = compound: COc1ccc(-c2ccc3c(N4CCOC[C@@H]4C)nc(N4CCOC[C@@H]4C)nc3n2)cc1CO [AZD8055] + NC(=O)Nc1cc(-c2cccc(F)c2)sc1C(=O)N[C@H]1CCCNC1 [AZD7762] (partner 0.2 µM)
Procedure, shortened: as §1

AZD8055 + Vorinostat = compound: COc1ccc(-c2ccc3c(N4CCOC[C@@H]4C)nc(N4CCOC[C@@H]4C)nc3n2)cc1CO [AZD8055] + O=C(CCCCCCC(=O)Nc1ccccc1)NO [Vorinostat] (partner 1 µM)
Procedure, shortened: as §1

AZD8055 + Trametinib = compound: COc1ccc(-c2ccc3c(N4CCOC[C@@H]4C)nc(N4CCOC[C@@H]4C)nc3n2)cc1CO [AZD8055] + CC(=O)Nc1cccc(-n2c(=O)n(C3CC3)c(=O)c3c(Nc4ccc(I)cc4F)n(C)c(=O)c(C)c32)c1 [Trametinib] (partner 0.02 µM)
Procedure, shortened: as §1

AZD8055 + Foretinib = compound: COc1ccc(-c2ccc3c(N4CCOC[C@@H]4C)nc(N4CCOC[C@@H]4C)nc3n2)cc1CO [AZD8055] + COc1cc2c(Oc3ccc(NC(=O)C4(C(=O)Nc5ccc(F)cc5)CC4)cc3F)ccnc2cc1OCCCN1CCOCC1 [Foretinib] (partner 0.25 µM)
Procedure, shortened: as §1

NCI-H522
relative viability (AZD8055; 0.01 µM): 0.965 | relative viability (AZD8055; 0.03162 µM): 1 | relative viability (AZD8055; 0.1 µM): 0.723 | relative viability (AZD8055; 0.3162 µM): 0.519 | relative viability (AZD8055; 1 µM): 0.719 | relative viability (AZD8055 + Tozasertib; first compound 0.01 µM): 0.571 | relative viability (AZD8055 + Tozasertib; first compound 0.03162 µM): 0.544 | relative viability (AZD8055 + Tozasertib; first compound 0.1 µM): 0.421 | relative viability (AZD8055 + Tozasertib; first compound 0.3162 µM): 0.421 | relative viability (AZD8055 + Tozasertib; first compound 1 µM): 0.425 | relative viability (AZD8055 + Pemetrexed; first compound 0.01 µM): 0.992 | relative viability (AZD8055 + Pemetrexed; first compound 0.03162 µM): 0.943 | relative viability (AZD8055 + Pemetrexed; first compound 0.1 µM): 0.962 | relative viability (AZD8055 + Pemetrexed; first compound 0.3162 µM): 0.518 | relative viability (AZD8055 + Pemetrexed; first compound 1 µM): 0.467 | relative viability (AZD8055 + Palbociclib; first compound 0.01 µM): 1.06 | relative viability (AZD8055 + Palbociclib; first compound 0.03162 µM): 0.923 | relative viability (AZD8055 + Palbociclib; first compound 0.1 µM): 0.717 | relative viability (AZD8055 + Palbociclib; first compound 0.3162 µM): 0.536 | relative viability (AZD8055 + Palbociclib; first compound 1 µM): 0.414 | relative viability (AZD8055 + Dasatinib; first compound 0.01 µM): 0.864 | relative viability (AZD8055 + Dasatinib; first compound 0.03162 µM): 0.831 | relative viability (AZD8055 + Dasatinib; first compound 0.1 µM): 0.907 | relative viability (AZD8055 + Dasatinib; first compound 0.3162 µM): 0.625 | relative viability (AZD8055 + Dasatinib; first compound 1 µM): 0.535 | relative viability (AZD8055 + Olaparib; first compound 0.01 µM): 0.603 | relative viability (AZD8055 + Olaparib; first compound 0.03162 µM): 0.686 | relative viability (AZD8055 + Olaparib; first compound 0.1 µM): 0.543 | relative viability (AZD8055 + Olaparib; first compound 0.3162 µM): 0.387 | relative viability (AZD8055 + Olaparib; first compound 1 µM): 0.385 | relative viability (AZD8055 + Luminespib; first compound 0.01 µM): 1.19 | relative viability (AZD8055 + Luminespib; first compound 0.03162 µM): 0.994 | relative viability (AZD8055 + Luminespib; first compound 0.1 µM): 0.744 | relative viability (AZD8055 + Luminespib; first compound 0.3162 µM): 0.581 | relative viability (AZD8055 + Luminespib; first compound 1 µM): 0.553 | relative viability (AZD8055 + Decitabine; first compound 0.01 µM): 0.737 | relative viability (AZD8055 + Decitabine; first compound 0.03162 µM): 0.591 | relative viability (AZD8055 + Decitabine; first compound 0.1 µM): 0.619 | relative viability (AZD8055 + Decitabine; first compound 0.3162 µM): 0.527 | relative viability (AZD8055 + Decitabine; first compound 1 µM): 0.462 | relative viability (AZD8055 + OSI-027; first compound 0.01 µM): 0.698 | relative viability (AZD8055 + OSI-027; first compound 0.03162 µM): 0.757 | relative viability (AZD8055 + OSI-027; first compound 0.1 µM): 0.803 | relative viability (AZD8055 + OSI-027; first compound 0.3162 µM): 0.67 | relative viability (AZD8055 + OSI-027; first compound 1 µM): 0.632 | relative viability (AZD8055 + Phenformin; first compound 0.01 µM): 0.69 | relative viability (AZD8055 + Phenformin; first compound 0.03162 µM): 0.624 | relative viability (AZD8055 + Phenformin; first compound 0.1 µM): 0.669 | relative viability (AZD8055 + Phenformin; first compound 0.3162 µM): 0.48 | relative viability (AZD8055 + Phenformin; first compound 1 µM): 0.56 | relative viability (AZD8055 + AZD7762; first compound 0.01 µM): 0.847 | relative viability (AZD8055 + AZD7762; first compound 0.03162 µM): 0.799 | relative viability (AZD8055 + AZD7762; first compound 0.1 µM): 0.647 | relative viability (AZD8055 + AZD7762; first compound 0.3162 µM): 0.532 | relative viability (AZD8055 + AZD7762; first compound 1 µM): 0.569 | relative viability (AZD8055 + Vorinostat; first compound 0.01 µM): 0.898 | relative viability (AZD8055 + Vorinostat; first compound 0.03162 µM): 0.731 | relative viability (AZD8055 + Vorinostat; first compound 0.1 µM): 0.876 | relative viability (AZD8055 + Vorinostat; first compound 0.3162 µM): 0.666 | relative viability (AZD8055 + Vorinostat; first compound 1 µM): 0.499 | relative viability (AZD8055 + Trametinib; first compound 0.01 µM): 0.747 | relative viability (AZD8055 + Trametinib; first compound 0.03162 µM): 0.648 | relative viability (AZD8055 + Trametinib; first compound 0.1 µM): 0.574 | relative viability (AZD8055 + Trametinib; first compound 0.3162 µM): 0.494 | relative viability (AZD8055 + Trametinib; first compound 1 µM): 0.462

NCI-H1623
relative viability (AZD8055; 0.01 µM): 0.916 | relative viability (AZD8055; 0.03162 µM): 1.03 | relative viability (AZD8055; 0.1 µM): 0.79 | relative viability (AZD8055; 0.3162 µM): 0.469 | relative viability (AZD8055; 1 µM): 0.36 | relative viability (AZD8055 + Tozasertib; first compound 0.01 µM): 0.46 | relative viability (AZD8055 + Tozasertib; first compound 0.03162 µM): 0.47 | relative viability (AZD8055 + Tozasertib; first compound 0.1 µM): 0.397 | relative viability (AZD8055 + Tozasertib; first compound 0.3162 µM): 0.254 | relative viability (AZD8055 + Tozasertib; first compound 1 µM): 0.288 | relative viability (AZD8055 + Foretinib; first compound 0.01 µM): 0.885 | relative viability (AZD8055 + Foretinib; first compound 0.03162 µM): 1.03 | relative viability (AZD8055 + Foretinib; first compound 0.1 µM): 0.578 | relative viability (AZD8055 + Foretinib; first compound 0.3162 µM): 0.438 | relative viability (AZD8055 + Foretinib; first compound 1 µM): 0.381 | relative viability (AZD8055 + Dasatinib; first compound 0.01 µM): 0.545 | relative viability (AZD8055 + Dasatinib; first compound 0.03162 µM): 0.584 | relative viability (AZD8055 + Dasatinib; first compound 0.1 µM): 0.412 | relative viability (AZD8055 + Dasatinib; first compound 0.3162 µM): 0.29 | relative viability (AZD8055 + Dasatinib; first compound 1 µM): 0.234 | relative viability (AZD8055 + Luminespib; first compound 0.01 µM): 0.483 | relative viability (AZD8055 + Luminespib; first compound 0.03162 µM): 0.434 | relative viability (AZD8055 + Luminespib; first compound 0.1 µM): 0.343 | relative viability (AZD8055 + Luminespib; first compound 0.3162 µM): 0.347 | relative viability (AZD8055 + Luminespib; first compound 1 µM): 0.278 | relative viability (AZD8055 + OSI-027; first compound 0.01 µM): 0.419 | relative viability (AZD8055 + OSI-027; first compound 0.03162 µM): 0.521 | relative viability (AZD8055 + OSI-027; first compound 0.1 µM): 0.425 | relative viability (AZD8055 + OSI-027; first compound 0.3162 µM): 0.411 | relative viability (AZD8055 + OSI-027; first compound 1 µM): 0.379 | relative viability (AZD8055 + Phenformin; first compound 0.01 µM): 0.586 | relative viability (AZD8055 + Phenformin; first compound 0.03162 µM): 0.597 | relative viability (AZD8055 + Phenformin; first compound 0.1 µM): 0.521 | relative viability (AZD8055 + Phenformin; first compound 0.3162 µM): 0.324 | relative viability (AZD8055 + Phenformin; first compound 1 µM): 0.316
